Earlier results, collected in patent US20250288613A1, “COMPOSITIONS AND METHODS TARGETING SAT1 FOR ENHANCING ANTI-TUMOR IMMUNITY DURING TUMOR PROGRESSION” (THE BRIGHAM AND WOMEN’S HOSPITAL, INC., priority 2022, published 2025).

Target: human spermidine/spermine acetyltransferase (SSAT) (Homo sapiens, UniProt P21673)
Conditions: competitive inhibition; spermidine as substrate

human spermidine/spermine acetyltransferase (SSAT), sequence (P21673 whole entry): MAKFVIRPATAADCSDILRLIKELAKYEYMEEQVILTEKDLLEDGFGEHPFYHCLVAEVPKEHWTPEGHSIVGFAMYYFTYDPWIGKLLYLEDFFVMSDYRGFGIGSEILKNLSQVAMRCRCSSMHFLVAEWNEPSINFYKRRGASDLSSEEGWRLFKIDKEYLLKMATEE

N=C(N)c1ccc(OCCCCCOc2ccc(C(=N)N)cc2)cc1 [Pentamidine]
Ki: 2400 nM

N=C(N)c1ccc(/N=N/Nc2ccc(C(=N)N)cc2)cc1 [berenil, 4,4′-(1-Triazene-1,3-diyl)bis(benzenecarboximidamide)]
Ki: 2000 nM
